Converted amounts (≈) assume the structure as drawn.

The subject of series [1] is S 180 cells. Briefly: Activity toward mice bearing the Sarcoma 180 tumor (subcutaneous transplant, tumor weight). It counts as in vivo, ICR mice. The note with it: 25 mg/kg injected into the tumor every four days from the 7th day, four times; for Proliferation inhibition ratio (%): 24th day, against control group; for Weight of tumor: measured on the 24th day. The procedure: ICR mice (male, 8-week-old, a group consisting of 5 mice), as divided into two groups, were transplanted subcutaneously with 1 x 10^6 S 180 cells per mouse, respectively. One group was treated with the drug by injection into the tumor every four days commencing with the 7th day after the transplantation, four times in total. On the 24th day, the average tumor weight for the drug-treated group was measured, and the ratio (the tumor proliferation inhibition ratio) against that for the control group (not treated with the drug) was calculated.

A further series has as its system rat platelet. Briefly: Platelet aggregation. It counts as cell-based. The note with it: concentration of 3 x 10-^5 M. An excerpt:
Neither l-0-octadecyl-2-0-(morpholinocarbonyl)glycero-3-phosphocholine nor 3-octadecyloxy-2-(morpholino-carbonyloxy)propyl 2-thiazolioethyl phosphate at a concentration of 3 x 10-^5 M caused platelet aggregation against rat platelet.

A further series concerns Meth A cells. Briefly: Necrotic effect against the Meth A tumor tissue. It counts as in vivo, Balb/c mice. The note with it: given intravenously, 7 days after transplantation, observed after 24 hours.
Series [2] concerns human myelocytic leukemia cells HL-60. Put plainly: Growth inhibiting effect and differentiation inducing activity on HL-60 (method of R. Gallo et al.). It counts as cell-based. The note with it: HL-60 cells. The procedure:
According to the method of R. Gallo et al. described in Blood 54 (3), 713 (1979), the growth inhibiting effect (IG effect)and differentiation inducing activity of 1-0-octadecyl-2-O-(morpholinocarbonyl)glycero-3-phosphocholine against human myelocytic leukemia cells HL-60 were assayed.

For series [3], the system named is S 180 cells. Put plainly: Antitumor effect against mice bearing S 180 tumor (intraperitoneal inoculation, survival). The note with it: 0.3 mg/mouse once a day, three times in total; for T/C (%) (life-span prolongation ratio against the control group): control group average survival 12.2 days; for Number of mice surviving for 50 days: group of five ICR mice inoculated intraperitoneally with 1 x 10^5 S 180 cells. It counts as in vivo, ICR mice. The protocol: ICR mice (a group consisting of five mice) were inoculated intraperitoneally with 1 x 10^5 S 180 cells per mouse, and then'given 0.3 mg/mouse of l-O-octadecyl-2-0-(morpholinocarbonyl)glycero-3-phosphocholine (Compound No. 1) dissolved in physiological saline once a day, three times in total, on the day of the inoculation and on the next day and the second day after the inoculation. The average of the survival days for the control group (consisting of 5 mice) was 12.2 days, whereas the number of surviving' mice in the drug-treated group on the 50th day and the life-span prolongation ratio (T/C) against the control group, are shown in Table 1.
In a similar manner, a test was carried out with 1-O-octadecyl-2-O-methylglycero-3-phosphocholine used as a control drug (A), with the results being shown below.

Take `CCCCCCCCCCCCCCCCCCOCC(COP(=O)([O-])OCC[n+]1ccsc1)OC(=O)N1CCOCC1` (centres unmarked) [Drug 3, 3-Octadecyloxy-2-(morpholinocarbonyloxy)propyl 2-thiazolioethyl phosphate]: in the series with S 180 cells [1], the “Proliferation inhibition ratio (%)” value turned out to be 73.9% and the “Weight of tumor” value is given as 0.39 g. Also, the “caused platelet aggregation against rat platelet” value with rat platelet is given as “Neither”.

On to `CCCCCCCCCCCCCCCCCCOCC(COP(=O)([O-])OCC[N+](C)(C)C)OC(=O)N1CCCC1` (centres unmarked) [1-O-octadecyl-2-O-(pyrrolidinocarbonyl)glycero-3-phospho-choline], for which the “change of the tumor tissue (necrosis)” value in the series with Meth A cells (25 mg/kg) is listed as “necrosis through bleeding”.

In the case of `CCCCCCCCCCCCCCCCCCOCC(COP(=O)([O-])OCC[N+](C)(C)C)OC(=O)N1CCOCC1` (stereo not drawn) [Compound 1, l-O-octadecyl-2-0-(morpholinocarbonyl)glycero-3-phosphocholine], the differentiation inducing activity entry in series [2] (concentration of 1-2 ug/ml) is recorded as “mild differentiation inducing activity”. Moreover, the IC50 in series [2] (Homo sapiens, read-out: IG effect on HL-60 (GD50)) came out at 0.6 µg/mL (≈ 0.963 µM). Moreover, the “caused platelet aggregation against rat platelet” value in the series on rat platelet was “Neither”. For the same compound, in the series with Meth A cells (1.25 mg/kg), the “change of the tumor tissue (necrosis)” value is reported as “necrosis through bleeding”. Moreover, in the series on S 180 cells [3], the “T/C (%) (life-span prolongation ratio against the control group)” value is on record as more than 336% and the “Number of mice surviving for 50 days” value is 2.

Consider `CCCCCCCCCCCCCCCCCCOCC(COP(=O)([O-])OCC[N+](C)(C)C)OC` (centres unmarked) [Control drug A, 1-O-octadecyl-2-O-methylglycero-3-phosphocholine, reference compound], for which, in the series with S 180 cells [3], the “T/C (%) (life-span prolongation ratio against the control group)” value is recorded as 162% and the “Number of mice surviving for 50 days” value was 0.

With `CCCCCCCCCCCCCCCCCCOCC(COP(=O)([O-])OCC[N+](C)(C)C)OC(=O)N1CCCCC1` (centres unmarked) [Drug 2, 1-O-Octadecyl-2-O-(piperidinocarbonyl)glycero-3-phosphocholine], in the series on S 180 cells [1], the “Proliferation inhibition ratio (%)” value was 52.4% and the “Weight of tumor” value is 0.71 g.

The record behind these values is EP0171968A1, “Use of a phospholipid derivative” (Takeda Chemical Industries, Ltd., priority 1984, dated 1986).
